Data on 15 molecules can be found in US7772230B2, “Chroman compound, processes for its preparation, and its pharmaceutical use” (China Pharmaceutical University, priority 2006, dated 2010).

Series [1] concerns the target T1, rapidly delayed rectifier potassium channel current (IKr) (Cavia porcellus, UniProt O08703).
T1 construct: the Guinea pig myocardial cells are separated with enzymolysis; endogenous in cells; host or cells: freshly isolated guinea pig ventricular myocytes
T1 sequence (O08703 1-1294): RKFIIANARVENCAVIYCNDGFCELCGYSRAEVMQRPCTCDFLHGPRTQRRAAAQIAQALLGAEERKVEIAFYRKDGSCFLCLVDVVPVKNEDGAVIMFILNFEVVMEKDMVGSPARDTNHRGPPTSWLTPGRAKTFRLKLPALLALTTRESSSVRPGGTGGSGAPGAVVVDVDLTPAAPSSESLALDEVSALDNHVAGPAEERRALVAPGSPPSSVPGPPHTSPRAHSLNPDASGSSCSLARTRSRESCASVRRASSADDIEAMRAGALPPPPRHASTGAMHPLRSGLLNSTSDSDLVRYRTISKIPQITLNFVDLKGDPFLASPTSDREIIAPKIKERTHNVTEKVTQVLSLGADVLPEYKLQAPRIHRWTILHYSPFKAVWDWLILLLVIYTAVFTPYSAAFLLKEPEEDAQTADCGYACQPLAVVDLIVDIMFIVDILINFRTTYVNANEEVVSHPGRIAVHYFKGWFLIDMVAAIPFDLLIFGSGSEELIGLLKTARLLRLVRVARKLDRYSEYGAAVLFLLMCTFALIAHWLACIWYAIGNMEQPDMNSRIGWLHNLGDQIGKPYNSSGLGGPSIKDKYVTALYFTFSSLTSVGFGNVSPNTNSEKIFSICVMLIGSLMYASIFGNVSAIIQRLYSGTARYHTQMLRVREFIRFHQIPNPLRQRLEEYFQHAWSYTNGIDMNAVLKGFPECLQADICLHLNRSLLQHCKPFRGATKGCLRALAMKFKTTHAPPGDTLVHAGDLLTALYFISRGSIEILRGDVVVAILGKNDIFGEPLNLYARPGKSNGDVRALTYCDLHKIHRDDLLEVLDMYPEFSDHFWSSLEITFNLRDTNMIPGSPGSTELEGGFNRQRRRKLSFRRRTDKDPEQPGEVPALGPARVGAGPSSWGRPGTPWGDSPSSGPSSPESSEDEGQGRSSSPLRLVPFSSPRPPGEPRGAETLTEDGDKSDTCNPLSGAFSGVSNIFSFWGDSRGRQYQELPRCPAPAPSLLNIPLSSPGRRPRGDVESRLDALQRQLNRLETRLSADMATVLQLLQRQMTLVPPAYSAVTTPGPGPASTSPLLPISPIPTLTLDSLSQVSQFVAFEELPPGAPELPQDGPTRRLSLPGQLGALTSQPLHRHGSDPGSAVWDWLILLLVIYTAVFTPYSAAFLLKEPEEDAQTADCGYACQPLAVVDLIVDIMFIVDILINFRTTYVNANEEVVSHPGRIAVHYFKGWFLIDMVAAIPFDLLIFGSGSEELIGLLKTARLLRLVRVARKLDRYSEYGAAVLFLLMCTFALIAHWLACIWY
In words: whole cell patch clamp on isolated Guinea pig myocardial cells, IKr. In kind it is cell-based. The conditions noted are these: Guinea pig ventricular myocytes, current recorded 10 min after administration, 25-30° C. Here is the method:
(§1) Experimental title: using vitro pachynsis myocardial cells of Guinea pig, the activity is determined by the whole cell membrane Patch clamp technology.
(§2) experimental mechanism: the Guinea pig myocardial cells are separated with enzymolysis, and the rapid activation component and the slowly activation component of the delayed commutating current in the cardiac muscle cells are recorded by whole cell membrane Patch clamp. Each compound is added to the perfuse liquid for measuring current after dissolved at least 10 min. The collected data is analyzed in pulse-fit, the IC50 value for IKr and IKs of each compound is calculated.
(§3) animals: Guinea pigs, male, weight 300-400 g.
(§4) solution: calcium free Tyrode's solution
(§5) pole inner solution (mmol/L): KCl 140, MgCl2 1.0, K2-ATP 4.0, EGTA 10, HEPES 5.0, pH=7.2
(§6) Experimental apparatus: Patch clamp magnifier (EPC-10, Germany), inverted microscope (TE-2000U, Nikon, Japan), microelectrode puller (PIP5, Germany), micro-manipulator (PCS-5000, Burleigh, USA).
(§7) Then, the hearts are taken off, their ventricle are cut to smash and incubated in fresh enzyme solution at 37° C., the solution is gently stirred for 5-10 min, pouring off the supernatant fluid, diluted with Tyrode's solution containing CaCl2 1 mmol/L, that is for the first cell stored liquor; with the same operation to obtain the second and the third cell storages. […] The cells are laid for 2 h before use.
(§8) the cell liquor is put into the cell pool, after the cells adhering to the wall, they are perfused with outer liquor of the cells at the rate of 2 ml/min, cells that having calcium resistance and clear transverse striations are to be selected, the poles are moved to the cell surface by tridimensional manipulator. The high resistance block are formed between the pole top and the cell surface by under pressure, and more over using reduced pressure to broking cell membrane, the pole inner liquor can be connected to the cell inner liquor so as to form the whole cell state. After the compensation to the capacitance and series impedance compensation the voltage tongs are recorded. The signal is led by Ag/AgCl pole and magnified by the Patch clamp magnifier, the computer dispenses presetting stimulate pulse by procedure and add to cells, and the electrical signal generated from cells is translated by transducer, and stored in computer. All of the stimulate signal control, electric current, data sampling and analyses are carried out by pulse V8.60. Azimilide is used as positive drugs in the research. Each test compound is dissolved in anhydrous ethanol, diluted to the same concentration by water, and added to outer cell liquor, the top concentration of ethanol is 0.1%.
(§9) Stimulate parameter: the record of IKr and IKS: the back value of the either current is recorded. Using extra-cellular fluid containing 0.1 mmol/L CdCl2 for perfusion, sustaining the voltage at −50 mV, depolarized to 60 mV, keeping for 500 ms, and sustaining the voltage at −50 mV, keeping for 1000 ms, recording IKr; and then binding the voltage at −50 mV for 1000 ms, recording IKs.
(In general: The patch-clamp technique gives a direct electrical read-out from membranes.)

The target of series [2] is T2, slowly delayed rectifier potassium channel current (IKs) (Cavia porcellus, UniProt O70344).
T2 construct: the Guinea pig myocardial cells are separated with enzymolysis; endogenous in cells; host or cells: freshly isolated guinea pig ventricular myocytes
T2 sequence (O70344 1-671): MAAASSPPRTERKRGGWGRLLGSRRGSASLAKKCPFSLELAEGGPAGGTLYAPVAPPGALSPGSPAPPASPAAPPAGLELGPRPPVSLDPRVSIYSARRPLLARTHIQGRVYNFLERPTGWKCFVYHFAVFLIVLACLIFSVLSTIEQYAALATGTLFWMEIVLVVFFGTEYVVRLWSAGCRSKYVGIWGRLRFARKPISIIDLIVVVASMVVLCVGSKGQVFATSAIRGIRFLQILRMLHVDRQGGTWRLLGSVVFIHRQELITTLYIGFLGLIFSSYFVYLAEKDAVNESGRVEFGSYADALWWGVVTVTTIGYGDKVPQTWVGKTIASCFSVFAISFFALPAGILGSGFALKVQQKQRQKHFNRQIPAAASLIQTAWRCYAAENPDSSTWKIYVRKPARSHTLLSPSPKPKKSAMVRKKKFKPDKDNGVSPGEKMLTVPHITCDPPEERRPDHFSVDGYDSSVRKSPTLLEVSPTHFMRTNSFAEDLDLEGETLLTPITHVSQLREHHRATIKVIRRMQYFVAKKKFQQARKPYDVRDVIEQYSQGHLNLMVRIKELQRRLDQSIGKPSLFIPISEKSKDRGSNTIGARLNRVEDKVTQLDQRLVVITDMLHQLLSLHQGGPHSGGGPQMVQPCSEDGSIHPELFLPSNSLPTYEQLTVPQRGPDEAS
T2 sequence (P41686 1-245 partner): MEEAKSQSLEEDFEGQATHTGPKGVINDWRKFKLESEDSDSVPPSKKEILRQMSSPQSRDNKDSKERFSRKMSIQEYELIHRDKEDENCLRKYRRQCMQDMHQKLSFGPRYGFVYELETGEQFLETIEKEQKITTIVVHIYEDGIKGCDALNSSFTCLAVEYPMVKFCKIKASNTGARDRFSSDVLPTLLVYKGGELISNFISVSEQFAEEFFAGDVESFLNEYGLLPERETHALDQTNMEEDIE
In words: whole cell patch clamp on isolated Guinea pig myocardial cells, IKs. In kind it is cell-based. As to conditions: Guinea pig ventricular myocytes, current recorded 10 min after administration, 25-30° C. Here is the method: as §1, §2, §3, §4, §5, §6, §7, §8, §9

For the molecule `CN1CCN(CCCCN2C(=O)CN(/N=C3\CCOc4ccc(O)cc43)C2=O)CC1.O=C(O)/C=C/C(=O)O`, the melting point (as a rule, the temperature, or range, at which the solid turns liquid) was 203 to 205 °C.

With `CCOc1ccc2c(c1)/C(=N/N1CC(=O)N(CCCCN3CCN(C)CC3)C1=O)CCO2.O=C(O)/C=C/C(=O)O`, the melting point was in the range of 225 to 227 °C.

With `Cc1ccc2c(c1)/C(=N/N1CC(=O)N(CCCCN3CCN(C)CC3)C1=O)CCO2.O=C(O)/C=C/C(=O)O`, the melting point fell in the range of 231 to 233 °C.

In the case of `COc1ccc2c(c1)/C(=N/N1CC(=O)N(CCCCN3CCN(C)CC3)C1=O)CCO2.O=C(O)/C=C/C(=O)O` [Ia example 1, 1-[4-(2,3-dihydro-6-methoxy)benzopyran]imino-3-[4-(methyl-1-piperazine)butyl]-2,4-imidazole dione difumarate], the melting point was 208 to 210 °C. For the same molecule, half-maximal inhibition in series [1] (IC50) required 1010 nM. Also, in series [2], half-maximal inhibition (IC50) required 650 nM.

Turning to `COc1ccc2c(c1)/C(=N/N1CC(=O)N(CCCCN3CCCCC3)C1=O)CCO2` [Ia example 5, 1-[4-(2,3-dihydro-6-methoxy)benzopyran]imino-3-(4-piperidine) butyl-2,4-imidazole dione], the half-maximal inhibitory concentration (IC50) (in general, the concentration that gives 50% inhibition) in series [1] was determined as 7470 nM; in series [2], 22000 nM.

In the case of `O=C1CN(/N=C2\CCOc3ccc(Cl)cc32)C(=O)N1CCCCN1CCCCC1` [Ia example 6, 1-[4-(2,3-dihydro-6-chloro)benzopyran]imino-3-(4-piperidine) butyl-2,4-imidazole dione], the IC50 in series [1] came out at 6.2 nM; in series [2] it was 61000 nM.

Regarding `Cc1ccc2c(c1)/C(=N/N1CC(=O)N(CCCCN3CCCCC3)C1=O)CCO2` [Ia example 7, 1-[4-(2,3-dihydro-6-methyl)benzopyran]imino-3-(4-piperidine) butyl-2,4-imidazole dione], the IC50 in series [1] was determined as 22000 nM; in series [2] it was 18900 nM.

As to `COc1ccc2c(c1)/C(=N/N1CC(=O)N(CCCN3CCN(C)CC3)C1=O)CCO2` [Ia example 8, 1-[4-(2,3-dihydro-6-methoxy)benzopyran]imino-3-[3-(4-methylpiperazine-1-yl)propyl]-2,4-imidazole dione difumarate], the figures for the IC50 in series [1] and in series [2] were 540 nM and 1.9 nM, respectively.

As to `Cc1ccc2c(c1)/C(=N/N1CC(=O)N(CCCN3CCN(C)CC3)C1=O)CCO2` [Ia example 9, 1-[4-(2,3-dihydro-6-methyl)benzopyran]imino-3-[3-(4-methylpiperazine-1-)propyl]-2,4-imidazole dione difumarate], the IC50 in series [1] was 619 nM; in series [2], 304 nM.

For the molecule `CN1CCN(CCCN2C(=O)CN(N=C3CCOc4ccc(Cl)cc43)C2=O)CC1` [Ia example 10, 1-[4-(2,3-dihydro-6-chlorine)benzopyran]imino-3-[3-(4-methylpiperazine-1-yl)propyl]-2,4-imidazole dione difumarate], the half-inhibitory concentration (IC50) in series [1] turned out to be 3870 nM; in series [2], 5.8 nM.

As to `CCOc1ccc2c(c1)/C(=N/N1CC(=O)N(CCCCN3CCCCC3)C1=O)CCO2` [Ib example 5, 1-[4-(2,3-dihydro-6-ethoxy)benzopyran]imino-3-(4-piperidine) butyl-2,4-imidazole dione], the 50% inhibitory concentration (IC50) in series [1] was 450 nM; in series [2], 1040 nM.

Consider `CCCOc1ccc2c(c1)/C(=N/N1CC(=O)N(CCCCN3CCCCC3)C1=O)CCO2` [Ib example 6, 1-[4-(2,3-dihydro-6-propoxy-)benzopyran]imino-3-(4-piperidine) butyl-2,4-imidazole dione], for which the IC50 in series [1] amounted to 400 nM; in series [2], 3.2 nM.

In the case of `CCCCOc1ccc2c(c1)/C(=N/N1CC(=O)N(CCCCN3CCCCC3)C1=O)CCO2` [Ib example 7, 1-[4-(2,3-dihydro-6-butoxy)benzopyran]imino-3-(4-piperidine) butyl-2,4-imidazole dione], the results for the half-inhibitory concentration (IC50) in series [1] and in series [2] were 17.4 nM and 1030 nM, respectively.

On to `CCOc1ccc2c(c1)/C(=N/N1CC(=O)N(CCCN3CCN(C)CC3)C1=O)CCO2` [Ib example 9, 1-[4-(2,3-dihydro-6-ethoxy)benzopyran]imino-3-[3-(4-methylpiperazine-1-yl)propyl]-2,4-imidazole dione difumarate], for which the concentration for half-maximal inhibition (IC50) is 4340 nM in series [1] and 26.9 nM in series [2].

Take `CCCOc1ccc2c(c1)/C(=N/N1CC(=O)N(CCCN3CCN(C)CC3)C1=O)CCO2` [Ib example 10, 1-[4-(2,3-dihydro-6-propoxy-)benzopyran]imino-3-[3-(4-methylpiperazine-1-yl)propyl]-2,4-imidazole dione difumarate]: the half-inhibitory concentration (IC50) in series [1] came to 106 nM; in series [2], 9.5 nM.
